Experimental findings from patent US12661410B2, “Compounds for targeted degradation of RET” (C4 Therapeutics, Inc., priority 2020, dated 2026) are described below.

Structures are written as SMILES. Changes are numbered by the printed parent chain. Like-named read-outs stand apart in the source and are kept apart here. A value given as a limit tells only on which side of the number the result lay.

The target of one assay is T1, RET(KD: 658-1114 G810R) (Homo sapiens, UniProt P07949, G810R).
T1 construct: 658-1114; expressed in transfected cells; host or cells: 293T.165 (293T cells, generated in-house)
T1 sequence (P07949 658-1114 G810R): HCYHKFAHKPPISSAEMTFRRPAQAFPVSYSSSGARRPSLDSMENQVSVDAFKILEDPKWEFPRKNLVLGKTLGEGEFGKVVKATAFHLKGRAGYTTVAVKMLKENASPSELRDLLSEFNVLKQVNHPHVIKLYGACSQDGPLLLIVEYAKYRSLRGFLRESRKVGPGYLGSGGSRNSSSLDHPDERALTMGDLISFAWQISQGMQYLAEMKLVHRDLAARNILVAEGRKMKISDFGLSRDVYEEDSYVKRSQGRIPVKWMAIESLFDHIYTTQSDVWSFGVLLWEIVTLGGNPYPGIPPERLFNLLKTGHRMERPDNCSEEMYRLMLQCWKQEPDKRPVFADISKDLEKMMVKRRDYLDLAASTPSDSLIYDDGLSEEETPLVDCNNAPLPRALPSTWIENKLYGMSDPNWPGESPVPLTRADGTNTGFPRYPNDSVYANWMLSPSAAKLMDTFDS
Briefly: HiBiT-Degradation, RET G810R degradation assay (Nano-Glo HiBiT Lytic), 293T.165 cells. In kind it is cell-based. The note with it: for Emax / DC50: 6.0 hours; for Emax: % remaining protein, read-out: 293T.165 RET(KD: 658-1114 G810R) 6.0 hours (Emax); for DC50: read-out: 293T.165 RET(KD: 658-1114 G810R) 6.0 hours (DC50). The source says:
(§1) Dulbecco's modified Eagle medium (DMEM) no-phenol red media and fetal bovine serum (FBS) were purchased from Gibco (Grand Island, NY, USA). Cell lines ectopically expressing wild-type or G810R RET kinase domain fused with a HiBiT tag were generated in-house (293T. 144 and 293T. 165, respectively). Cell culture flasks and 384-well microplates were acquired from VWR (Radnor, PA, USA). The Nano-Glo® HiBiT Lytic Assay System was purchased from Promega (Madison, WI, USA).
(§2) RET wild-type (WT) and G810R degradation were assessed using the Nano-Glo® HiBiT Lytic assay (Promega, Medison, WI, USA). To determine the effect of degraders on protein levels, cells were plated in 384-well plates and treated with compounds of interest in duplicates for 6 hours using an 11-point half-log dilution series, with the highest dose set at 10 μM. Cell lysis and addition of the Nano-Glo® HiBiT Lytic Assay reagents was then performed. Luminescence signal was measured using an EnVision™ Multimode plate reader (Perkin Elmer, Santa Clara, CA, USA). The half-maximal degradation concentration (DC50) and % remaining protein (Emax) was then derived from the dose-response curves.

The next assay deals with T2, RET (658-1114) (Homo sapiens, UniProt P07949).
T2 construct: 658-1114; expressed in transfected cells; host or cells: 293T.144 (293T cells, generated in-house)
T2 sequence (P07949 658-1114): T1 sequence (P07949 658-1114 G810R) with R153G
Briefly: HiBiT-Degradation, RET wild-type degradation assay (Nano-Glo HiBiT Lytic), 293T.144 cells. In kind it is cell-based. The note with it: for Emax / DC50: 6.0 hours; for Emax: read-out: 293T.144 RET (658-1114) 6.0 hours (Emax); for DC50: read-out: 293T.144 RET (658-1114) 6.0 hours (DC50).
From the text: as §1, §2

Where [1] appears, read: half-maximal degradation concentration.

As to `N#Cc1cnn2cc(-c3cnn([C@H]4CC[C@H](N5CCC(c6ccc(N[C@@H]7CCC(=O)NC7=O)cc6F)CC5)CC4)c3)nc(-c3ccc(N4CCC5(CC4)OCc4cccnc45)nc3)c12` (relative stereo) [Compound 149, 6-[1-[4-[4-[2-fluoro-4-[[rac-(3R)-2,6-dioxo-3-piperidyl]amino]phenyl]-1-piperidyl]cyclohexyl]pyrazol-4-yl]-4-(6-spiro[5H-furo[3,4-b]pyridine-7,4′-piperidine]-1′-yl-3-pyridyl)pyrazolo[1,5-a]pyrazine-3-carbonitrile], the “293T.165 RET(KD: 658-1114 G810R) 6.0 hours (IP) [nM]” value on RET(KD: 658-1114 G810R) was “++++ (<50 nM = ++++)”. In addition, the Emax on RET(KD: 658-1114 G810R) and at RET (658-1114) (% remaining protein) was under 30% each time. Moreover, the DC50 at RET(KD: 658-1114 G810R) (setting [1]) and on RET (658-1114) (setting [1]) was under 50 nM throughout. For the same compound, the “293T.144 RET (658-1114) 6.0 hours (IP) [nM]” value (“293T.144 RET” for short) at RET (658-1114) is given as “++++ (<50 nM = ++++)”.

Consider `N#Cc1cnn2cc(-c3cnn([C@H]4CC[C@H](N5CCN(c6cc(F)c(NC7CCC(=O)NC7=O)cc6F)CC5)CC4)c3)nc(-c3ccc(N4CC5COCC(C4)N5Cc4ccccn4)nc3)c12` (relative stereo) [Compound 161, 6-[1-[4-[4-[4-[(2,6-dioxo-3-piperidyl)amino]-2,5-difluoro-phenyl]piperazin-1-yl]cyclohexyl]pyrazol-4-yl]-4-[6-[9-(2-pyridylmethyl)-3-oxa-7,9-diazabicyclo[3.3.1]nonan-7-yl]-3-pyridyl]pyrazolo[1,5-a]pyrazine-3-carbonitrile], for which, at RET(KD: 658-1114 G810R), the “293T.165 RET(KD: 658-1114 G810R) 6.0 hours (IP) [nM]” value is “++++ (<50 nM = ++++)”. The Emax on RET(KD: 658-1114 G810R) and on RET (658-1114) (% remaining protein) was under 30% each time. The DC50 on RET(KD: 658-1114 G810R) (setting [1]) and at RET (658-1114) (setting [1]) was under 50 nM each time. In addition, at RET (658-1114), the “293T.144 RET” value is listed as “++++ (<50 nM = ++++)”.

Regarding `COc1ccc(CN2C3COCC2CN(c2ccc(-c4nc(-c5cnn([C@H]6CC[C@H](N7CCN(c8cc(F)c(NC9CCC(=O)NC9=O)cc8F)CC7)CC6)c5)cn5ncc(C#N)c45)cn2)C3)cn1` (relative stereo) [Compound 162, 6-[1-[4-[4-[4-[(2,6-dioxo-3-piperidyl)amino]-2,5-difluoro-phenyl]piperazin-1-yl]cyclohexyl]pyrazol-4-yl]-4-[6-[9-[(6-methoxy-3-pyridyl)methyl]-3-oxa-7,9-diazabicyclo[3.3.1]nonan-7-yl]-3-pyridyl]pyrazolo[1,5-a]pyrazine-3-carbonitrile], the “293T.165 RET(KD: 658-1114 G810R) 6.0 hours (IP) [nM]” value on RET(KD: 658-1114 G810R) was “++++ (<50 nM = ++++)”. Further, the Emax on RET(KD: 658-1114 G810R) and at RET (658-1114) (% remaining protein) was under 30% in each case. Further, the DC50 at RET(KD: 658-1114 G810R) (setting [1]) is under 100 nM; on RET (658-1114) (setting [1]) it was under 50 nM. Further, the “293T.144 RET” value at RET (658-1114) was “++++ (<50 nM = ++++)”.

With `COc1cc(N2CCN([C@H]3CC[C@H](n4cc(-c5cn6ncc(C#N)c6c(-c6ccc(N7CC8COCC(C7)N8C(=O)OC(C)(C)C)nc6)n5)cn4)CC3)CC2)c(F)cc1NC1CCC(=O)NC1=O` (relative stereo) [Compound 163, tert-butyl 7-[5-[3-cyano-6-[1-[4-[4-[4-[(2,6-dioxo-3-piperidyl)amino]-2-fluoro-5-methoxy-phenyl]piperazin-1-yl]cyclohexyl]pyrazol-4-yl]pyrazolo[1,5-a]pyrazin-4-yl]-2-pyridyl]-3-oxa-7,9-diazabicyclo[3.3.1]nonane-9-carboxylate], the “293T.165 RET(KD: 658-1114 G810R) 6.0 hours (IP) [nM]” value on RET(KD: 658-1114 G810R) was “++++ (<50 nM = ++++)”. For the same compound, the Emax on RET(KD: 658-1114 G810R) and on RET (658-1114) (% remaining protein) was under 30% throughout. Further, the 50% degradation concentration (DC50) on RET(KD: 658-1114 G810R) (setting [1]) was under 100 nM; on RET (658-1114) (setting [1]), under 50 nM. At RET (658-1114), the “293T.144 RET” value is listed as “++++ (<50 nM = ++++)”.

As for `COc1cc(N2CCN([C@H]3CC[C@H](n4cc(-c5cn6ncc(C#N)c6c(-c6ccc(N7C[C@H]8COC[C@@H](C7)N8Cc7ccc(F)cc7)nc6)n5)cn4)CC3)CC2)c(F)cc1NC1CCC(=O)NC1=O` (relative stereo) [Compound 164, 6-[1-[4-[4-[4-[(2,6-dioxo-3-piperidyl)amino]-2-fluoro-5-methoxy-phenyl]piperazin-1-yl]cyclohexyl]pyrazol-4-yl]-4-[6-[(1R,5S)-9-[(4-fluorophenyl)methyl]-3-oxa-7,9-diazabicyclo[3.3.1]nonan-7-yl]-3-pyridyl]pyrazolo[1,5-a]pyrazine-3-carbonitrile], at RET(KD: 658-1114 G810R), the “293T.165 RET(KD: 658-1114 G810R) 6.0 hours (IP) [nM]” value is “+++ (<100 nM = +++)”. Also, the Emax at RET(KD: 658-1114 G810R) and on RET (658-1114) (% remaining protein) was under 30% throughout. Besides, the DC50 at RET(KD: 658-1114 G810R) (setting [1]) is under 100 nM; on RET (658-1114) (setting [1]) it was under 50 nM. Moreover, the “293T.144 RET” value at RET (658-1114) is on record as “++++ (<50 nM = ++++)”.

Consider `COc1ccc(CN2C3CC2CN(c2ccc(-c4nc(-c5cnn([C@H]6CC[C@H](N7CCN(c8cc(OC)c(NC9CCC(=O)NC9=O)cc8F)CC7)CC6)c5)cn5ncc(C#N)c45)cn2)C3)cn1` (relative stereo) [Compound 167, 6-[1-[4-[4-[4-[(2,6-dioxo-3-piperidyl)amino]-2-fluoro-5-methoxy-phenyl]piperazin-1-yl]cyclohexyl]pyrazol-4-yl]-4-[6-[6-[(6-methoxy-3-pyridyl)methyl]-3,6-diazabicyclo[3.1.1]heptan-3-yl]-3-pyridyl]pyrazolo[1,5-a]pyrazine-3-carbonitrile], for which the “293T.165 RET(KD: 658-1114 G810R) 6.0 hours (IP) [nM]” value on RET(KD: 658-1114 G810R) was “++++ (<50 nM = ++++)”. The Emax at RET(KD: 658-1114 G810R) and on RET (658-1114) (% remaining protein) was under 30% in each case. Moreover, the DC50 at RET(KD: 658-1114 G810R) (setting [1]) and on RET (658-1114) (setting [1]) was under 50 nM throughout. Also, at RET (658-1114), the “293T.144 RET” value is given as “++++ (<50 nM = ++++)”.

For the compound `COc1ccc(CN2C3CC2CN(c2ccc(-c4nc(-c5cnn([C@H]6CC[C@@H](N7CCC(c8cc9c(cc8F)c(N8CCC(=O)NC8=O)nn9C)C(F)(F)C7)CC6)c5)cn5ncc(C#N)c45)cn2)C3)cn1` (relative stereo) [Compound 200, 6-(1-((1s, 4s)-4-(4-(3-(2,4-Dioxotetrahydropyrimidin-1(2H)-yl)-5-fluoro-1-methyl-1H-indazol-6-yl)-3,3-difluoropiperidin-1-yl)cyclohexyl)-1H-pyrazol-4-yl)-4-(6-(6-((6-methoxypyridin-3-yl)methyl)-3,6-diazabicyclo[3.1.1]heptan-3-yl)pyridin-3-yl)pyrazolo[1,5-a]pyrazine-3-carbonitrile], at RET(KD: 658-1114 G810R), the “293T.165 RET(KD: 658-1114 G810R) 6.0 hours (IP) [nM]” value was “++++ (<50 nM = ++++)”. For the same compound, the Emax was under 50% at RET(KD: 658-1114 G810R) and under 30% on RET (658-1114) (% remaining protein). Moreover, the DC50 on RET(KD: 658-1114 G810R) (setting [1]) and at RET (658-1114) (setting [1]) was under 50 nM each time. The “293T.144 RET” value on RET (658-1114) was “++++ (<50 nM = ++++)”.

As for `CCC1(C(=O)NC(C)C)CCN(c2ccc(-c3nc(-c4cnn(C5CCN(C(=O)CC6(O)CCN(c7ccc(N[C@@H]8CCC(=O)NC8=O)cc7Cl)CC6)CC5)c4)cn4ncc(C#N)c34)cn2)CC1` (single isomer, unassigned) [Compound 11], on RET(KD: 658-1114 G810R), the Emax was under 30%. The DC50 on RET(KD: 658-1114 G810R) (setting [1]) is under 50 nM. For the same compound, at RET(KD: 658-1114 G810R) (HiBiT-Degradation), the “293T.165 RET(KD: 658-1114 G810R) 6.0 hours (Emax)” value is given as “++++ (< 30% = ++++)”, the “293T.165 RET(KD: 658-1114 G810R) 6.0 hours (IP) [nM]” value was “++++ (< 50 nM = ++++)” and the DC50 was under 50 nM. At RET (658-1114) (HiBiT-Degradation), the “293T.144 RET” value is on record as “++++ (< 50 nM = ++++)”, the DC50 is under 50 nM and the Emax is under 30%.
